Literature values, collected in patent US12064440B2, “Ophthalmic gel compositions of bimatoprost and timolol and associated methods” (Somerset Therapeutics, LLC, priority 2022, dated 2024).

Settings: under certain conditions

Row | SMILES | active pharmaceutical ingredient (API) stability
1 | CCNC(=O)CCC/C=C\C[C@@H]1[C@@H](/C=C/[C@@H](O)CCc2ccccc2)[C@H](O)C[C@@H]1O [bimatoprost, (Z)-7-[(1R, 2R, 3R, 5S)-3,5-Dihydroxy-2-[(1E, 3S)-3-hydroxy-5-phenyl-1-pentenyl]cyclopentyl]-5-N-ethylheptenamid] | remain stable
2 | CC(C)OC(=O)CCC/C=C\C[C@@H]1[C@@H](CC[C@@H](O)CCc2ccccc2)[C@H](O)C[C@@H]1O [latanoprost] | degradation
3 | CC(C)OC(=O)CCC/C=C\C[C@@H]1[C@@H](/C=C/[C@@H](O)COc2cccc(C(F)(F)F)c2)[C@H](O)C[C@@H]1O [travoprost] | degradation
